A word on the IC50: it is the concentration needed to halve the response being measured. The term Ki denotes the dissociation constant of the complex between target and ligand, obtained from inhibition or displacement.

Experiment [1] concerns the target T1, Beta-secretase 1 (Homo sapiens, UniProt P56817). The experiment can be described thus: Inhibition of human BACE1 expressed in HEK293 cells assessed as reduction in soluble APPalpha level after 4 hrs by Western blot analysis. Type of experiment: cell-based.
In experiment [2] the target is T1, Beta-secretase 1. The experiment can be described thus: Inhibition of human BACE1.
For experiment [3], the target named is T1, Beta-secretase 1. The experiment can be described thus: Inhibition of human BACE1 expressed in HEK293 cells assessed as reduction in soluble APPbeta level after 4 hrs by Western blot analysis. Also noted: concentration or dose not given beside the values. Type of experiment: cell-based. A general note: In western blotting, separated proteins are transferred to a membrane and probed.

Structures are written as SMILES. The source made the active and inactive calls. No cut-off for these calls is given here.

T1 sequence (P56817 whole entry): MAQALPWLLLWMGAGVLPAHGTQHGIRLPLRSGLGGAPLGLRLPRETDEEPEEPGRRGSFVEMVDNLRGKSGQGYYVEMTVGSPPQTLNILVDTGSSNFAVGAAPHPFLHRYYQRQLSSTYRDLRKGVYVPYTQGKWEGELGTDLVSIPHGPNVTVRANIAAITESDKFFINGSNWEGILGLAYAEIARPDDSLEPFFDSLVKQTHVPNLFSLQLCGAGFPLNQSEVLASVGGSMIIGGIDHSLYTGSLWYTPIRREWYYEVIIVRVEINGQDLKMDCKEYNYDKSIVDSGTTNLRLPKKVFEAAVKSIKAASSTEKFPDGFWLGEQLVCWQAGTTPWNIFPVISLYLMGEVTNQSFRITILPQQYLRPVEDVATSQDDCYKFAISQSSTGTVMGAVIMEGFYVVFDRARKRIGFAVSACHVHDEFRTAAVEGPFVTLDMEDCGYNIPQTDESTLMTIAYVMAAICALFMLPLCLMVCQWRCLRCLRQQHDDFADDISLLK

With `C=C(C)[C@H](CC=C(C)C)Cc1c(O)cc(OC)c2c1O[C@H](c1ccc(O)cc1OC)CC2=O`, the result in experiment [1] was Active. In experiment [2], this compound showed an IC50 of 6.7 µM and an inhibitory constant (Ki) of 10.6 µM. Also, the Activity in experiment [3] turned out to be 51.1%.

For `C=C(C)[C@H](CC=C(C)C)Cc1c(O)cc(O)c2c1O[C@H](c1ccc(O)cc1OC)CC2=O` [LEACHIANONE A], the Activity result in experiment [1] was “Dose-dependent effect”; in experiment [3] it was 40.7%. This compound also had a half-maximal inhibitory concentration (IC50) in experiment [2] of 8.4 µM. The compound further registered a Ki in experiment [2] of 3.9 µM.

Compound `COc1cc(O)c(CC=C(C)C)c2c1C(=O)CC(c1ccc(O)cc1)O2` (stereo not drawn) [ISOXANTHOHUMOL] registered an IC50 in experiment [2] of 27.7 µM.

On to `C=C(C)[C@H](CC=C(C)C)Cc1c(O)cc(O)c2c1O[C@H](c1ccccc1O)CC2=O` [KUSHENOL A], for which, in experiment [1], the outcome was Active. Further, in experiment [2], the IC50 came to 2.6 µM and the inhibition constant Ki was 3 µM. Besides, in experiment [3], the Activity came to 61.8%.

For `C=C(C)C(CC=C(C)C)Cc1c(O)cc(OC)c2c1O[C@H](c1ccc(O)cc1O)CC2=O` (stereo partly drawn) [KURARINONE], in experiment [1], the result was Active. In experiment [2], this compound registered a 50% inhibitory concentration (IC50) of 3.3 µM and an inhibition constant (Ki) of 7.2 µM. In addition, the Activity in experiment [3] came to 51.9%.

In experiment [2], `C=C(C)[C@H](CCC(C)(C)O)Cc1c(O)cc(O)c2c1O[C@H](c1ccccc1O)CC2=O` [KUSHENOL T] yielded a half-inhibitory concentration (IC50) of 36.8 µM.

Regarding `C=C(C)[C@H](CCC(C)(C)O)Cc1c(O)cc(OC)c2c1O[C@H](c1ccc(O)cc1O)CC2=O` [KURARINOL], the IC50 in experiment [2] is 39.2 µM.

Turning to `C=C(C)[C@H](CC=C(C)C)Cc1c(O)cc(O)c2c1O[C@H](c1ccc(O)cc1O)CC2=O` [SOPHORAFLAVANONE G], in experiment [1], the result was Active. In experiment [2], the IC50 was found to be 5.2 µM and the affinity, expressed as Ki, was 1.1 µM. Moreover, in experiment [3], the Activity was 56%.
